These are literature values, as cited in patent publication US20040009220A1, “Rate-controlled beta blockers and process for forming same” (priority 2001, published 2004).

For data set [1] the following is noted: in man.

For the molecule `COCCc1ccc(OCC(O)CNC(C)C)cc1` (centres unmarked) [Metroprolol], the plasma half life result in data set [1] was “three to seven”. Take `COCCc1ccc(OCC(O)CNC(C)C)cc1` (centres unmarked) [metoprolol succinate]: the solubility in water entry is “freely soluble in water”.
